In experiment [1] the test system is quiescent A431 cells (endogenous PDE4 isoforms). Kind of experiment: Label-free Epic RWG biosensor DMR assay of PDE inhibitors in synchronized quiescent A431 cells. As to conditions: for DMR signal induced by PDE inhibitor: each at 12.5 micromolar, 22k cells per well, synchronized in HBSS under low CO2 for 2 hrs, vs vehicle; for DMR signal upon stimulation: synchronized in HBSS buffer for a shorter time (<90 min), data not shown. It is filed as cell-based, human. The protocol:
Cells were typically grown using ˜1 to 2×10^4 cells per well at passage 3 to 15 suspended in 50 μl of the corresponding culture medium in the biosensor microplate, and were cultured at 37° C. under air/5% CO2 for ˜1 day. Except for A431 which was subject to ˜20 hr starvation through continuously culture in the serum-free DMEM, the other cell types were directly assayed without starvation.
Epic® wavelength interrogation system (Corning Inc., Corning, N.Y.) was used for whole cell sensing. This system consists of a temperature-control unit, an optical detection unit, and an on-board liquid handling unit with robotics. The detection unit is centered on integrated fiber optics, and enables kinetic measures of cellular responses with a time interval of ˜15 sec. The compound solutions were introduced by using the on-board liquid handling unit (i.e., pippetting).
The RWG biosensor is capable of detecting minute changes in local index of refraction near the sensor surface. Since the local index of refraction within a cell is a function of density and its distribution of biomass (e.g., proteins, molecular complexes), the biosensor exploits its evanescent wave to non-invasively detect ligand-induced dynamic mass redistribution in native cells. The evanescent wave extends into the cells and exponentially decays over distance, leading to a characteristic sensing volume of ˜150 nm, implying that any optical response mediated through the receptor activation only represents an average over the portion of the cell that the evanescent wave is sampling. The aggregation of many cellular events downstream the receptor activation determines the kinetics and amplitudes of a ligand-induced DMR.
All studies were carried out at a controlled temperature (28° C.). At least two independent sets of experiments, each with at least three replicates, were performed.
We further examined the DMR signal, if any, of the quiescent A431 cells upon treatment with PDE inhibitors. […] The quiescent A431 cells obtained under the same culture condition were used. Here the initial seeding numbers of cells were relatively low (˜20K cells per well in a 384 well Epic biosensor microplate tissue culture treated). […] After washing with the serum free medium, the cells were continuously cultured in the serum free medium for another 24 hrs to reach a quiescent state. Here the quiescent state was largely achieved through serum withdrawl. […] The cell membrane bound carbonic anahydrase is a known sensor for CO2 level.
In FIG. 4 the quiescent cells were achieved primarily through serum withdrawl. We were interested in the quiescent cells achieved through both contact inhibition and serum withdrawl. To do so, much higher initial seeding numbers of cells (>=25k cells per well for the 384 well Epic biosensor microplate) were used. […] Here both quiescent cells were subject to the same synchronization condition (2 hr incubation in the HBSS assay solution in a low CO2 environment).
Here the quiescent A431 cells were used using 22k cells per well in 384 well Epic biosensor microplates, followed by one day (˜24 hrs) culture in serum medium and 1 day (˜24 hrs) serum free medium, and sequential synchronization in the HBSS buffer solution under a relatively low CO2 environment for 2 hrs. […] For comparison, the DMR signal of cells stimulated with the buffer only (“Vehicle”) were included.

Experiment [2] has as its target endogenous Gs-coupled β2-adrenergic receptor (Homo sapiens, UniProt P07550). As to conditions: A431 cells; Epic DMR vs whole cell cAMP kit (FIG. 3). The protocol:
For biosensor cellular assays, compound solutions were made by diluting the stored concentrated solutions with the HBSS (1× Hanks balanced salt solution, plus 20 mM Hepes, pH 7.1), and transferred into a 384 well polypropylene compound storage plate to prepare a compound source plate. Two compound source plates were made separately when a two-step assay was performed. In parallel, the cells were washed twice with the HBSS and maintained in 30 μl of the HBSS to prepare a cell assay plate. Both the cell assay plate and the compound source plate(s) were then incubated in the hotel of the reader system. After incubation the baseline wavelengths of all biosensors in the cell assay microplate were recorded and normalized to zero. Afterwards, a 2 to 10 min continuous recording was carried out to establish a baseline, and to ensure that the cells reached a steady state. Cellular responses were then triggered by transferring 10 μl of the compound solutions into the cell assay plate using the on-board liquid handler.

The subject of experiment [3] is intracellular cAMP level of A431 cells. Kind of experiment: Chemiluminescence quantification of cyclic AMP in whole cell lysate. The format is cell-based, human.
Procedure: A431 cells were seeded in 96 well TCT microplate at 80000 cells/well, cultured for 20 hrs and starved for an extra 20 hrs. Cells were washed two time with HBSS and incubated with 100 μl of HBSS, Leibovitz's L-15 medium (Gibco) or 1 μM of Acetozamine (Sigma) in HBSS for 2 hrs in the Epic instrument. […] The medium or buffer was removed and cells were lysed in 100 μm al of lysis buffer (from cAMP HTS immunoassay kit, Millipore) containing 1 mM IBMX. 50 μl of cell extracts as well as cAMP standard were then analyzed using the same procedure described by the vendor.
A431 Cells were cultured in a serum rich medium on Corning tissue culture treated 96 well microplate until it reached a high confluency (˜95%). After washing, the cells were continuously cultured in a serum free medium for overnight. At this point, the cells were at ˜100% confluency. After washing with corresponding solution, the cells are incubated at the same low CO2 environment (˜2% CO2) for 2 hr. The cells were then lysed with a cell lysis buffer containing 100 micromolar IBMX to block the PDE activity, followed by cAMP measurements, using the protocol as recommended by the supplier.

Read-outs that look alike come from different tables or passages of the source.

endogenous Gs-coupled β2-adrenergic receptor, sequence (P07550 whole entry): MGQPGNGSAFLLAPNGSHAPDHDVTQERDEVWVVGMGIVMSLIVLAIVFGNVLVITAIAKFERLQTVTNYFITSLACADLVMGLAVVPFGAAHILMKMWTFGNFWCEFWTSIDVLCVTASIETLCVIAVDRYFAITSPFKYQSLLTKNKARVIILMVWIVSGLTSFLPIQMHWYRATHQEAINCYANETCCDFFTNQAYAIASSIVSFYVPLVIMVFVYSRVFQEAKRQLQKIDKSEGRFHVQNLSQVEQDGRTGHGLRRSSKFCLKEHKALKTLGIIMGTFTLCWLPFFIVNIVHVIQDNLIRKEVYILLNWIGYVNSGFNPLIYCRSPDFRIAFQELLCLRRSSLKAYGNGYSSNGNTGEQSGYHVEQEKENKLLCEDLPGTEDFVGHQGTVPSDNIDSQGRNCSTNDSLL

For `Clc1cccc(Nc2nnc(-c3ccccc3)c3ccccc23)c1` [MY-5445], in experiment [1], the “DMR signal induced by PDE inhibitor” value is “did not result in any detectable DMR signals”. Same read-out and setting: the result for `CCCOc1ccccc1-c1nc2nn[nH]c2c(=O)[nH]1` [zaprinast] reads “did not result in any detectable DMR signals”; that for `CCCn1c(=O)c(C)cn2nc(N)nc12` [ICI63197], “Gs-like DMR signal”. Turning to `CNC[C@H](O)c1ccc(O)c(O)c1` [epinephrine], the “potency to activate DMR signal relative to potency to cause whole cell cAMP accumulation” value in experiment [2] was “much higher potency”. With `CCc1ccc2c(-c3cccc(Cl)c3)nc(=O)n(CC)c2n1` [YM-976], the “DMR signal induced by PDE inhibitor” value in experiment [1] was “Gs-like DMR signal”. The term EC50 denotes the midpoint of the concentration-response curve. With `CC(C)Cn1c(=O)n(C)c(=O)c2[nH]cnc21` [IBMX], in experiment [3] (10 nanomolar to 100 micromolar, all synchronization conditions, data not shown), the “impact on intracellular cAMP levels (whole cell lysate)” value was “little impact”. Also, in experiment [1] (quiescent A431 (~20K cells per well, serum withdrawl), the three synchronized conditions wherein IBMX led to a detectable DMR signal, read-out: potency of IBMX-induced DMR signal (EC50)), the EC50 is ~10 µM. Also, the “IBMX-induced DMR signal” value is “little DMR signals” in experiment [1] (quiescent A431 synchronized in CO2 independent medium L-15, highest doses examined (FIG. 4c)); “dose-dependent and robust DMR signal” in experiment [1] (synchronized in 1×HBSS 20 mM Hepes pH 7.1 with or without acetamolamide, low CO2, 2 hr (FIG. 4A, 4B)); “robust DMR signal” in experiment [1] (synchronized in CO2 independent L-15 medium containing acetamolamide at 1 micromolar (FIG. 4D)). Moreover, the “DMR signal upon stimulation” value in experiment [1] is given as “inconsistent DMR signal”.

Turning to `COCc1nc2c([nH]1)c(=O)n(C)c(=O)n2CC(C)C` [MMPX], in experiment [1], the “DMR signal induced by PDE inhibitor” value is listed as “did not result in any detectable DMR signals”. Take `COc1ccc([C@@H]2CNC(=O)C2)cc1OC1CCCC1` [R-rolipram]: the EC50 in experiment [1] (Homo sapiens, A-431, quiescent cells achieved through both contact inhibition and serum withdrawl (>=25k cells per well), 2 hr incubation in HBSS, low CO2, read-out: EC50 of DMR response) is 0.25 µM. Besides, in experiment [1], the “DMR signal induced by PDE inhibitor” value is “Gs-like DMR signal” and the “DMR signal upon stimulation” value is listed as “inconsistent DMR signal”. `Cc1ccc([N+](=O)[O-])cc1S(=O)(=O)N(C)C` [BRL-50481]: the “DMR signal induced by PDE inhibitor” value in experiment [1] is “did not result in any detectable DMR signals”. On the same count and under the same terms, the result for `Cc1[nH]c(=O)c(C#N)cc1-c1ccncc1` [milrinone] reads “did not result in any detectable DMR signals”. Take `CCCCOc1cc(CC2CNC(=O)N2)ccc1OC` (centres unmarked) [Ro-20-1724]: the “DMR signal induced by PDE inhibitor” value in experiment [1] was “Gs-like DMR signal”. The same measure, in the same setting: next, `O=C1CN2Cc3c(ccc(Cl)c3Cl)N=C2N1` [anagrelide]: “did not result in any detectable DMR signals”. Take `CC(=O)Nc1nnc(S(N)(=O)=O)s1` [acetazolamide]: the “basal cAMP level” value in experiment [3] (quiescent A431 synchronized 2 hr, low CO2, in L-15 medium containing 1 micromolar acetazolamide) was 0.74±0.1 pmole/160K cells.
